Assay results published in US11718628B2, “SREBP inhibitors comprising a 6-membered central ring” (Capulus Therapeutics, LLC, priority 2018, dated 2023).

Experiments:
[1] = Log D by octanol/aqueous buffer partitioning; assay type: physicochemical; conditions: pH 7.4, 1-octanol/buffer
Summary of the method: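 1-Octanol and aqueous buffer (1:1) with test compound, 0.15 mM DMSO stock; shaken 1 hr at room temperature, equilibrated 20 min, centrifuged for phase separation. Both phases analysed by HPLC-UV; Log D = log(octanol area/buffer area).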

[2] = In vivo pharmacokinetic properties in rats (IV and PO); parameters: species or system male Sprague Dawley rats
Summary of the method: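 Male Sprague Dawley rats received 2.00 mg/kg IV via the tail vein, with plasma sampled from a cannulated jugular vein from 0.083 to 24 h. Oral dosing was 10 mg/kg in rats or C57BL/6J mice, sampled at 0.25-24 h by jugular cannula (rats) or retro-orbital plexus (mice).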

[3] = test system: liver gene expression (ACACA, ACLY, FASN, LSS, PNPLA3); test: Liver gene expression in mice after oral administration; assay type: in vivo; conditions: vs vehicle
Summary of the method: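 Mice were dosed by oral gavage with compounds in 0.5% methylcellulose, with 5% N-methyl pyrrolidone added when needed, and unperfused livers were collected at 6 or 24 h. Liver RNA was reverse-transcribed with random primers and ACACA, ACLY, FASN, LSS and PNPLA3 were measured by qPCR. Fold change versus vehicle was derived by ΔΔCT, and the mean of the five genes is reported as Total Fold Change.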

CC(C)(C)c1cc(-c2cncc(-c3ccc(C(=O)N4CCC(O)CC4)cc3Cl)c2)ccn1 [Compound Z-725]
LogD [1]: 3.56 | Intravenous Delivery (IV) CL ([2]; IV, 2 mg/kg): 30.1 mL/min/kg | Intravenous Delivery (IV) T1/2 ([2]; IV, 2 mg/kg): 1.53 h | Intravenous Delivery (IV) Vd ([2]; IV, 2 mg/kg): 4.02 L/kg | % F (Bioavailability of oral delivery) ([2]; PO 10 mg/kg vs IV 2 mg/kg): 24% | Oral Administration (PO) AUC0-last ([2]; PO, 10 mg/kg): 1307 | Oral Administration (PO) T1/2 ([2]; PO, 10 mg/kg): 5.1 h | Oral Administration (PO) Tmax ([2]; PO, 10 mg/kg): 1.67 h | Total Gene FC Time (6 h) ([3]; 10 mpk): +++ (0-0.509 = +++) | Total Gene FC Time (24 h) ([3]; 10 mpk): + (>0.751 = +) | Total Gene FC Time (6 h) ([3]; 30 mpk): +++ (0-0.509 = +++) | Total Gene FC Time (24 h) ([3]; 30 mpk): + (>0.751 = +)
